# Measurements published in publication PMC9794833, “Ligand recognition and activation of neuromedin U receptor 2” (Nature Communications, 2022).
# Values joined by “and” are separate entries in the source; they are usually repeats but may differ in a detail not shown here. Identical values can stand only once. Like-named read-outs stand apart in the source and are kept apart here. Where a SMILES comes first, the peptide text is derived from it. [ ]: non-standard residue; d: D form. The star is where a group is joined. Propanoyl(3-cHex) = O=C(CCC1CCCCC1)*; Dap = NC[C@H](N)C(=O)O
# Assays:
# NMU2 N306Q = target: T1, NMU2 N306Q (Homo sapiens, UniProt Q9GZQ4, N306Q); test: TRUPATH assay, NMU2 mutant N306Q; format: cell-based
# T1 construct: HA signal peptide (N); expressed in transfected cells; host or cells: HEK 293F
# Protocol: (§1) The plasmids of Gαi1, Gβ3, and Gγ9 used for the TRUPATH assay were purchased from Addgene (TRUPATH Kit, #1000000163). NMU2 constructs of WT and mutants were constructed into a PTT5 vector (Invitrogen) with an N-terminal HA signal peptide followed by a Flag tag. HEK 293F cells were transiently transfected with WT or mutants of NMU2, Gαi1, Gβ3, and Gγ9 at an […] ratio of 4:1:1:1 with a total of 3500 ng plasmid DNA using a transfection reagent (PEI MAX 2000, Polysciences) and cultivated at 37 °C with 5 % CO2. Cells were collected after 48-h transfection. The expression level of the receptor was measured by incubating 10 μl cells with 15 μl TBS buffer supplemented with 4% bovine serum albumin, 20% (v/v) viability staining solution7-AAD (Invitrogen, Cat#00-6993-50), and ANTI-FLAG M2-FITC antibody (Sigma, F4049; 1:100 diluted by TBS) at 4 °C for 20 min. After incubation, 175 μl TBS buffer was added, and the fluorescence signal on the cell surface was detected by an FCM (flow cytometry) reader (Millipore). The cells were diluted with 1× HBSS (Hank’s balanced salt solution) balanced buffer supplemented with 25 mM HEPES, pH 7.4, and seeded onto the 96-well opaque cell culture plates (Beyotime) at a density of 18,000 cells per well by 60 μl. Freshly prepared 50 μM coelenterazine 400a (Nanolight Technologies) was added into the well by 10 μl. After a 5 min equilibration time in the darkness, plates were then read in a Synerg^TM H1 microplate reader (BioTek) with excitation at 395 nm and emission at 410 and 515 nm by serially three times. Then, 30 μl of 3.3× agonists were added into the wells with a gradient final concentration from 10^−4–10^−13 M. Plates were read immediately again by serially five times. Data were processed and analyzed following the method in the literature by using GraphPad Prism 8.0.
# NMU2 [1] = target: T2, NMU2 (Homo sapiens, UniProt Q9GZQ4); test: TRUPATH Gαi1βγ biosensor assay, WT NMU2; format: cell-based; details: WT; for CPN 116–induced G protein activation of NMU2: single replicates, in % (unit assumed)
# T2 construct: HA signal peptide (N); expressed in transfected cells; host or cells: HEK 293F
# Protocol: as §1
# NMU2 A302H = target: T3, NMU2 A302H (Homo sapiens, UniProt Q9GZQ4, A302H); test: TRUPATH assay, NMU2 mutant A302H; format: cell-based
# T3 construct: HA signal peptide (N); expressed in transfected cells; host or cells: HEK 293F
# Protocol: as §1
# NMU2 [2] = target: T2, NMU2; parameters: method as in PMID 24999562, PMID 25815150, PMID 28548497; details: potency for NMU2; cited from earlier work
# NMU2 H43E = target: T4, NMU2 H43E (Homo sapiens, UniProt Q9GZQ4, H43E); test: TRUPATH assay, NMU2 mutant H43E; format: cell-based; details: H43E
# T4 construct: HA signal peptide (N); expressed in transfected cells; host or cells: HEK 293F
# Protocol: as §1
# NMU1 = system: NMU1; parameters: method as in PMID 24999562, PMID 25815150, PMID 28548497; details: cited from earlier work
# NMU2 N306W = target: T5, NMU2 N306W (Homo sapiens, UniProt Q9GZQ4, N306W); test: TRUPATH assay, NMU2 mutant N306W; format: cell-based
# T5 construct: HA signal peptide (N); expressed in transfected cells; host or cells: HEK 293F
# Protocol: as §1
# NMU2 H43W = target: T6, NMU2 H43W (Homo sapiens, UniProt Q9GZQ4, H43W); test: TRUPATH assay, NMU2 mutant H43W; format: cell-based
# T6 construct: HA signal peptide (N); expressed in transfected cells; host or cells: HEK 293F
# Protocol: as §1
# [3] = earlier manuscript version, peer review file
# [4] = read-out: pEC50 mean±SEM (converted)
# T3 sequence (Q9GZQ4 whole entry A302H): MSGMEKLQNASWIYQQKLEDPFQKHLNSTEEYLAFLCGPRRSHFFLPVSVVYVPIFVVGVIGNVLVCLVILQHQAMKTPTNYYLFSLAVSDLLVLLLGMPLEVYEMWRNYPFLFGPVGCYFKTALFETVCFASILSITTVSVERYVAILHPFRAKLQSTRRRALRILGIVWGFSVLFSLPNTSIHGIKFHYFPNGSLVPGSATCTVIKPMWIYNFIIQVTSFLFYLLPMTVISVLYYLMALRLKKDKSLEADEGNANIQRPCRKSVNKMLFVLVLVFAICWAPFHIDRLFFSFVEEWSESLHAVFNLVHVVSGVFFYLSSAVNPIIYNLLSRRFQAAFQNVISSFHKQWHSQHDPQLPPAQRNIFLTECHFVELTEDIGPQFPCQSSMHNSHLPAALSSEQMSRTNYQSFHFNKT
# T4 sequence (Q9GZQ4 whole entry H43E): as the sequence (Q9GZQ4 whole entry A302H) above, with H43E, H302A counted along it
# T1 sequence (Q9GZQ4 whole entry N306Q): as the sequence (Q9GZQ4 whole entry A302H) above, with H302A, N306Q counted along it
# T2 sequence (Q9GZQ4 whole entry): as the sequence (Q9GZQ4 whole entry A302H) above, with H302A counted along it
# T6 sequence (Q9GZQ4 whole entry H43W): as the sequence (Q9GZQ4 whole entry A302H) above, with H43W, H302A counted along it
# T5 sequence (Q9GZQ4 whole entry N306W): as the sequence (Q9GZQ4 whole entry A302H) above, with H302A, N306W counted along it
structure (smiles),measurement,setting,value
CC(C)C[C@H](NC(=O)CCC1CCCCC1)C(=O)N[C@@H](CC(C)C)C(=O)N[C@@H](CN)C(=O)N1CCC[C@H]1C(=O)N[C@@H](CCCNC(=N)N)C(=O)N[C@@H](CC(N)=O)C(N)=O [CPN 116] ({Propanoyl(3-cHex)}-LL[Dap]PRN-NH2; N-terminus assumed),EC50 ratio EC50(mutant)/EC50(WT),NMU2 N306Q,34 and ~30
same,Span (window between Emax and minimal agonist response),NMU2 N306Q,103±8 % of WT
same,"G protein activation (TRUPATH), dose-response point",NMU2 N306Q; Log [agonist] M -4,92.4083 and 98.1528 and 132.361 and 88.4481
same,"G protein activation (TRUPATH), dose-response point",NMU2 N306Q; Log [agonist] M -5,86.2104 and 99.9961 and 102.907 and 71.1922
same,reduction of potency,NMU2 N306Q; [3],about 40 fold
same,EC50,NMU2 N306Q; read-out: EC50,3030 nM
same,EC50,NMU2 N306Q; [4],3020 nM
same,EC50 ratio EC50(mutant)/EC50(WT),NMU2 [1],1
same,Span (window between Emax and minimal agonist response),NMU2 [1],100±5 % of WT
same,CPN 116–induced G protein activation of NMU2,NMU2 [1]; Log [CPN 116] M -4,124.271 and 109.389 and 104.836 and 98.7874 and 114.415 and 92.1354 and 98.8516 and 96.9846 and 129.092
same,CPN 116–induced G protein activation of NMU2,NMU2 [1]; Log [CPN 116] M -5,81.0668 and 90.6105 and 83.9029 and 70.7281 and 97.1643 and 105.033 and 97.1976 and 102.389 and 91.9125
same,CPN 116–induced G protein activation of NMU2,NMU2 [1]; Log [CPN 116] M -6,123.537 and 69.0158 and 98.755 and 109.275 and 101.527 and 90.1601 and 88.5457 and 99.457 and 76.0968 and 66.3324
same,CPN 116–induced G protein activation of NMU2,NMU2 [1]; Log [CPN 116] M -7,58.8924 and 38.0271 and 51.0097 and 20.9117 and 20.6245 and 99.7769 and 42.6311 and 75.7485 and 28.5134 and 61.3823
same,CPN 116–induced G protein activation of NMU2,NMU2 [1]; Log [CPN 116] M -8,61.8786 and 27.1582 and 20.07 and 29.5038 and 13.1206 and 29.1828 and -9.383 and 21.3054 and 11.8363 and 17.7072
same,CPN 116–induced G protein activation of NMU2,NMU2 [1]; Log [CPN 116] M -9,19.9062 and -6.919 and 9.364 and -2.803 and 20.3603 and -10.3226 and 21.8665 and -7.72 and -11.2532 and 17.6747
same,CPN 116–induced G protein activation of NMU2,NMU2 [1]; Log [CPN 116] M -10,41.8708 and 6.201 and -13.4099 and 3.958 and 1.871 and 13.514 and 0.4422 and 6.532 and 9.793 and -10.7717
same,CPN 116–induced G protein activation of NMU2,NMU2 [1]; Log [CPN 116] M -11,-45.0449 and -20.5889 and -0.1978 and -15.7237 and -24.3777 and 3.048 and -8.327 and 4.148 and -6.043 and -10.0645
same,EC50,"NMU2 [1]; agonist-induced G protein activation, HEK 293F, read-out: EC50",88 nM
same,EC50,NMU2 [1]; [4],89.1 nM
same,EC50 ratio EC50(mutant)/EC50(WT),NMU2 A302H,10
same,Span (window between Emax and minimal agonist response),NMU2 A302H,57±12 % of WT
same,EC50,NMU2 A302H; read-out: EC50,890 nM
same,EC50,NMU2 A302H; [4],891 nM
same,EC50,NMU2 [2],6.6 nM
same,EC50 ratio EC50(mutant)/EC50(WT),NMU2 H43E,34 and ~30
same,Span (window between Emax and minimal agonist response),NMU2 H43E,68±10 % of WT
same,"G protein activation (TRUPATH), dose-response point",NMU2 H43E; Log [agonist] M -4,54.8659 and 69.4702 and 83.0554
same,reduction of potency,NMU2 H43E; [3],about 40 fold
same,EC50,NMU2 H43E; read-out: EC50,3010 nM
same,EC50,NMU2 H43E; [4],3020 nM
same,activation of NMU1,NMU1,without obvious activation of NMU1
same,CPN 116–induced G protein activation of NMU2,"NMU2 N306W; Log [CPN 116] M -4, single replicates",-39.3918 and -40.1037 and -18.108
same,CPN 116–induced G protein activation of NMU2,"NMU2 N306W; Log [CPN 116] M -5, single replicates",-35.463 and -12.1167 and -20.5536
same,CPN 116–induced G protein activation of NMU2,"NMU2 N306W; Log [CPN 116] M -6, single replicates",-13.9347 and -29.6651
same,CPN 116–induced G protein activation of NMU2,"NMU2 N306W; Log [CPN 116] M -7, single replicates",-42.0373 and -15.8433 and -22.9653
same,CPN 116–induced G protein activation of NMU2,"NMU2 N306W; Log [CPN 116] M -8, single replicates",-43.5336 and -18.6278
same,CPN 116–induced G protein activation of NMU2,"NMU2 N306W; Log [CPN 116] M -9, single replicates",-58.7333 and -19.6009 and -22.809
same,CPN 116–induced G protein activation of NMU2,"NMU2 N306W; Log [CPN 116] M -10, single replicates",-49.0206 and -44.7808 and -17.6453
same,CPN 116–induced G protein activation of NMU2,"NMU2 N306W; Log [CPN 116] M -11, single replicates",-6.043 and -10.0645 and -20.5889
same,EC50 ratio EC50(mutant)/EC50(WT),NMU2 H43W,4
same,Span (window between Emax and minimal agonist response),NMU2 H43W,113±8 % of WT
same,"G protein activation (TRUPATH), dose-response point",NMU2 H43W; Log [agonist] M -4,70.3208 and 118.253 and 100.643 and 93.456
same,"G protein activation (TRUPATH), dose-response point",NMU2 H43W; Log [agonist] M -5,117.081 and 116.835 and 123.722 and 102.53
same,EC50,NMU2 H43W; read-out: EC50,328 nM
same,EC50,NMU2 H43W; [4],331 nM
